According to patent US20250268959A1, “COMPOSITIONS CONTAINING INDOLE-DERIVED METABOLITES AND METHODS OF USE THEREOF” (Imvela Corp., priority 2024, published 2025):
Where two headings read alike, the source gives them in different places.

How the values were obtained:
AhR [1] = biological target: T1, AhR (Homo sapiens, UniProt P35869); experiment: AhR activation, in vitro luminescence assay in human cell lines expressing AhR; type: cell-based; conditions: human cell line expressing AhR; 200 μM; normalized to methylcholanthrene (FIG. 5)
T1 sequence (P35869 11-848): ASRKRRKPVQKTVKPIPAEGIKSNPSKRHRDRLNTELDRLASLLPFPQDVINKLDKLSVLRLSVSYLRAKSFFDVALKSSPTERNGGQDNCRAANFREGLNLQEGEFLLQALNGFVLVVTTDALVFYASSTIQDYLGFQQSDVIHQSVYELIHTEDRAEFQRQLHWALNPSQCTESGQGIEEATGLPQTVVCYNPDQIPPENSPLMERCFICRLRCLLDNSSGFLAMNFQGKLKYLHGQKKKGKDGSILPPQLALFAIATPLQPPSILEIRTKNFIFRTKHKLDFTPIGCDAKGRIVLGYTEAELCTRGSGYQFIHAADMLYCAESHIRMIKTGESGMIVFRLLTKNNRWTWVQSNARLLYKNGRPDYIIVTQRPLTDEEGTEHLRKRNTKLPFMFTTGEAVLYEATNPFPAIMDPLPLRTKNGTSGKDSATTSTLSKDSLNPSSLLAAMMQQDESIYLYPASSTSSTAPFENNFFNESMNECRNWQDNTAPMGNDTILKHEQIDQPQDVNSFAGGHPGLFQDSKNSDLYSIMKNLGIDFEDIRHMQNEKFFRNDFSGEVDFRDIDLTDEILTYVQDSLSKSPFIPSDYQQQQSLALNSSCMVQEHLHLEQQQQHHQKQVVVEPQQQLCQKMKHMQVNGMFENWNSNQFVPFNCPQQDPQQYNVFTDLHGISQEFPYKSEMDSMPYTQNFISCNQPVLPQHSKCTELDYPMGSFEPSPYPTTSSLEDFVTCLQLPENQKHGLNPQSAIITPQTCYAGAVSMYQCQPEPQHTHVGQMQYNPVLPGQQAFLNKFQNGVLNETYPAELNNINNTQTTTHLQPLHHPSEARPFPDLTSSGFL
Description: (§1) The utility of ILA and IAld in multiple host was validated by an in vitro assay. Human or canine cell lines expressing AhR were exposed to ILA or IAld at 200 μM, and AhR activation was assayed using in vitro luminescence.

AhR [2] = biological target: T2, AhR (Canis lupus familiaris, UniProt A0A8I3RSX6); experiment: AhR activation, in vitro luminescence assay in canine cell lines expressing AhR; type: cell-based; conditions: canine cell line expressing AhR; 200 μM; normalized to methylcholanthrene (FIG. 5)
T2 sequence (A0A8I3RSX6 1-853): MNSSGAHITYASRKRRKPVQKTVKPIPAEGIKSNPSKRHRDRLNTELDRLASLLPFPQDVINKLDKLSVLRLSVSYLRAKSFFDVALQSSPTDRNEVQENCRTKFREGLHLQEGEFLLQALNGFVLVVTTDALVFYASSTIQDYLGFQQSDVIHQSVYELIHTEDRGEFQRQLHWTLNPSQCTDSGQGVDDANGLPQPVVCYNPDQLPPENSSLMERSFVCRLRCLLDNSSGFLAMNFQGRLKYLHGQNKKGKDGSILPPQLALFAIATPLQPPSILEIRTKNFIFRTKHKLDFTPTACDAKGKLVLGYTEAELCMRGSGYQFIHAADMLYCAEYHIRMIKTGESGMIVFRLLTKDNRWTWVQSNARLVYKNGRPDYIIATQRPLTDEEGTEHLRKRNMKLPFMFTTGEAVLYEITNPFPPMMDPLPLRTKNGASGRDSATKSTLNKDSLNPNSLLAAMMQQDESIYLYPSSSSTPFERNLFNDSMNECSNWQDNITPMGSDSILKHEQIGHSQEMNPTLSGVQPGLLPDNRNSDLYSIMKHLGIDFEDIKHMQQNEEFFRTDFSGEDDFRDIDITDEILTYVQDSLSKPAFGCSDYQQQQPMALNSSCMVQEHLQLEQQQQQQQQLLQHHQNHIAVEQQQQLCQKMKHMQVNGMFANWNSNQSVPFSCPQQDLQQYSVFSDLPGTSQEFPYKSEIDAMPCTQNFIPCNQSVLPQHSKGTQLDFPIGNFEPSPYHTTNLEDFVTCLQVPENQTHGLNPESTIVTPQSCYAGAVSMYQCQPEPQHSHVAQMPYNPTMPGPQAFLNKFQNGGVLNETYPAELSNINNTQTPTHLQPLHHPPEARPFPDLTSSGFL
Description: as §1

[3] = rats; IPA supplementation; over 1 week; cited from earlier work
[4] = mice; IPA supplementation; in 2 weeks; cited from earlier work

Row | SMILES | AhR activation (AhR [1]) | AhR activation (AhR [2]) | reduction of weight gain [3] [%] | reduction of weight gain [4] [%]
1 | O=C(O)C(O)Cc1c[nH]c2ccccc12 (stereo not drawn) [ILA, indole-3-lactic acid] | AhR activation was observed | AhR activation was observed |  | 
2 | O=Cc1c[nH]c2ccccc12 [IAld, indole-3-carboxaldehyde] | AhR activation was observed | AhR activation was observed |  | 
3 | O=C(O)CCc1c[nH]c2ccccc12 [IPA, indole-3-propionic acid] |  |  | ~50 | ~60
